Measured values reported in ChEMBL document CHEMBL6115029, “Discovery of Daraxonrasib (RMC-6236), a Potent and Orally Bioavailable RAS(ON) Multi-selective, Noncovalent Tri-complex Inhibitor for the Treatment of Patients with Multiple RAS-Addicted Cancers” (J Med Chem, 2025).
Calls of active or inactive are those of the source. The calls are words filed in the database; no cut-off is given here.

Columns and labels:
[1] = Toxicity in female BALB/c nude mouse xenografted with human HPAF-II cells harboring wildtype KRAS/KRAS G12D mutant assessed as effect on body weight at 25 mg/kg, po administered once daily for 28 days; format: organism-based; conditions: in vivo, 672 h, time 28 day
[2] = target: Sodium channel protein type 5 subunit alpha (Homo sapiens, UniProt Q14524); test: Inhibition of human Nav1.5; format: toxicity
[3] = Clearance in male Beagle dog at 1 mg/kg, iv measured after 24 hrs by LC-MS/MS analysis; format: ADME, organism-based, Canis lupus familiaris; conditions: in vivo
[4] = (§1) In vivo inhibition of MAPK signaling pathway in female BALB/c nude mouse xenografted with human MIA PaCa-2 cells harboring KRAS G12C/G12C mutant assessed as reduction in DUSP6 mRNA level in tumor at 3 mg/kg, po administered as single dose and measured after 8 hrs by qPCR analysis relative to control; format: functional
[5] = Tmax in male Beagle dog at 5 mg/kg, po measured after 24 hrs by LC-MS/MS analysis; format: ADME, organism-based, Canis lupus familiaris; conditions: in vivo
[6] = Half-life in male cynomolgus monkey at 1 mg/kg, iv measured after 24 hrs by LC-MS/MS analysis; format: ADME, organism-based, Macaca fascicularis; conditions: in vivo
SK-MEL-30 = test: Cytotoxicity against human SK-MEL-30 cells harboring […] mutant cultured as 2D cells assessed as inhibition of cell proliferation incubated for 120 hrs by CellTiter-Glo luminescence assay; format: functional, cell-based
NCI-H441 [7] = test: Inhibition of ERK1/2 phosphorylation in human NCI-H441 cells harboring KRAS G12V mutant incubated for 4 hrs by AlphaLISA assay; format: cell-based
PSN1 = test: Inhibition of ERK1/2 phosphorylation in human PSN1 cells harboring KRAS G12R mutant incubated for 4 hrs by AlphaLISA assay; format: cell-based
Mus musculus = test: In vivo inhibition of MAPK signaling pathway in female BALB/c nude mouse xenografted with human MIA PaCa-2 cells harboring KRAS G12C/G12C mutant assessed as reduction in DUSP6 mRNA level in tumor at 25 mg/kg, po administered as single dose and measured upto 48 hrs by qPCR analysis; format: functional, organism-based
NCI-H441 [8] = test: Antitumor activity against human NCI-H441 cells harboring wildtype KRAS/KRAS G12V mutant xenografted in female BALB/c nude mouse assessed as tumor regression at 25 mg/kg, po administered once daily for 28 days; format: functional, organism-based; conditions: time 28.0 day
NCI-H358 = test: Cytotoxicity against human NCI-H358 cells harboring KRAS G12C mutant cultured as 2D cells assessed as reduction in cell viability incubated for 120 hrs by CellTiter-Glo luminescence assay; format: functional, cell-based; conditions: NCI-H358, 120 h
[9] = Oral bioavailability in female BALB/c mouse blood at 10 mg/kg measured after 24 hrs by LC-MS/MS analysis; format: ADME, organism-based
CAPAN-1 = test: Cytotoxicity against human CAPAN-1 cells harboring KRAS G12V mutant cultured as 2D cells assessed as reduction in cell viability incubated for 120 hrs by CellTiter-Glo luminescence assay; format: functional, cell-based; conditions: CAPAN-1, 120 h
[10] = Inhibition of ERK1/2 phosphorylation in human NCI-H358 cells harboring KRAS G12C mutant incubated for 4 hrs by AlphaLISA assay; format: cell-based; conditions: NCI-H358, 4 h
[11] = target: Voltage-dependent L-type calcium channel subunit alpha-1C (Homo sapiens, UniProt Q13936); test: Inhibition of human Cav1.2; format: toxicity
[12] = Inhibition of ERK1/2 phosphorylation in human CAPAN-1 cells harboring KRAS G12V mutant incubated for 4 hrs by AlphaLISA assay; format: cell-based; conditions: CAPAN-1, 4 h
[13] = Toxicity in female BALB/c nude mouse xenografted with human NCI-H1373 cells harboring KRAS G12C/KRAS G12C mutant assessed as effect on body weight at 25 mg/kg, po administered once daily for 28 days; format: organism-based; conditions: in vivo, 672 h, time 28 day
[14] = Inhibition of 6His-tagged KRAS G12D mutant(1 to 169 residues)/GST-tagged GMPPNP-bound BRAF RBD (155 to 229 reisudes)/Cyclophilin A (unknown origin) tri-complex protein-protein interaction incubated for 3 hrs by TR-FERT based disruption assay; parameters: species or system Homo sapiens
[15] = target: Voltage-gated inwardly rectifying potassium channel KCNH2 (Homo sapiens, UniProt Q12809); test: Inhibition of human ERG; format: toxicity
MIA PaCa-2 = test: Antitumor activity against human MIA PaCa-2 cells harboring KRAS G12C/G12C mutant xenografted in female BALB/c mouse model assessed as tumor regression at 25 mg/kg, po administered once daily for 28 days; format: functional, organism-based; conditions: time 28.0 day
HPAF-II = test: Antitumor activity against human HPAF-II cells harboring wildtype KRAS/KRAS G12D mutant xenografted in female BALB/c mouse model assessed as reduction in tumor volume administered orally as once daily dose for 28 days; format: functional, cell-based; conditions: dose 3-25 mg/kg, route po, time 28.0 day
[16] = Oral bioavailability in male cynomolgus monkey at 10 mg/kg measured after 24 hrs by LC-MS/MS analysis; format: ADME, organism-based, Macaca fascicularis; conditions: in vivo
[17] = Apparent permeability across apical to basolateral side in human Caco-2 cells at 5 uM incubated for 2 hrs by LC-MS/MS analysis; format: ADME, cell-based
[18] = Tmax in female BALB/c mouse at 10 mg/kg, po measured after 24 hrs by LC-MS/MS analysis; format: ADME, organism-based; conditions: in vivo
[19] = as §1, with “10” for “3”; format: functional
[20] = Half-life in male cynomolgus monkey at 10 mg/kg, po measured after 24 hrs by LC-MS/MS analysis; format: ADME, organism-based, Macaca fascicularis; conditions: in vivo
[21] = Tmax in male Sprague-Dawley rat at 60 mg/kg, po measured after 24 hrs by LC-MS/MS analysis; format: ADME, organism-based; conditions: in vivo
[22] = Clearance in male cynomolgus monkey at 1 mg/kg, iv measured after 24 hrs by LC-MS/MS analysis; format: ADME, organism-based, Macaca fascicularis; conditions: in vivo
[23] = Half-life in male Sprague-Dawley rat at 60 mg/kg, po measured after 24 hrs by LC-MS/MS analysis; format: ADME, organism-based; conditions: in vivo
[24] = Inhibition of 6His-tagged KRAS G12V mutant(1 to 169 residues)/GST-tagged GMPPNP-bound BRAF RBD (155 to 229 reisudes)/Cyclophilin A (unknown origin) tri-complex protein-protein interaction incubated for 3 hrs by TR-FERT based disruption assay; parameters: species or system Homo sapiens
Hs 766 = test: Cytotoxicity against human Hs766T cells harboring KRAS Q61H mutant cultured as 2D cells assessed as inhibition of cell proliferation incubated for 120 hrs by CellTiter-Glo luminescence assay; format: functional, cell-based
NCI-H1373 = test: Antitumor activity against human NCI-H1373 cells harboring KRAS G12C/KRAS G12C mutant xenografted in female BALB/c nude mouse assessed as tumor regression at 25 mg/kg, po administered once daily for 28 days; format: functional, organism-based; conditions: time 28.0 day
[25] = Half-life in male Sprague-Dawley rat at 1 mg/kg, iv measured after 24 hrs by LC-MS/MS analysis; format: ADME, organism-based; conditions: in vivo
[26] = Half-life in female BALB/c mouse at 1 mg/kg, iv measured after 24 hrs by LC-MS/MS analysis; format: ADME, organism-based; conditions: in vivo

Sequence of Sodium channel protein type 5 subunit alpha (Q14524 whole entry): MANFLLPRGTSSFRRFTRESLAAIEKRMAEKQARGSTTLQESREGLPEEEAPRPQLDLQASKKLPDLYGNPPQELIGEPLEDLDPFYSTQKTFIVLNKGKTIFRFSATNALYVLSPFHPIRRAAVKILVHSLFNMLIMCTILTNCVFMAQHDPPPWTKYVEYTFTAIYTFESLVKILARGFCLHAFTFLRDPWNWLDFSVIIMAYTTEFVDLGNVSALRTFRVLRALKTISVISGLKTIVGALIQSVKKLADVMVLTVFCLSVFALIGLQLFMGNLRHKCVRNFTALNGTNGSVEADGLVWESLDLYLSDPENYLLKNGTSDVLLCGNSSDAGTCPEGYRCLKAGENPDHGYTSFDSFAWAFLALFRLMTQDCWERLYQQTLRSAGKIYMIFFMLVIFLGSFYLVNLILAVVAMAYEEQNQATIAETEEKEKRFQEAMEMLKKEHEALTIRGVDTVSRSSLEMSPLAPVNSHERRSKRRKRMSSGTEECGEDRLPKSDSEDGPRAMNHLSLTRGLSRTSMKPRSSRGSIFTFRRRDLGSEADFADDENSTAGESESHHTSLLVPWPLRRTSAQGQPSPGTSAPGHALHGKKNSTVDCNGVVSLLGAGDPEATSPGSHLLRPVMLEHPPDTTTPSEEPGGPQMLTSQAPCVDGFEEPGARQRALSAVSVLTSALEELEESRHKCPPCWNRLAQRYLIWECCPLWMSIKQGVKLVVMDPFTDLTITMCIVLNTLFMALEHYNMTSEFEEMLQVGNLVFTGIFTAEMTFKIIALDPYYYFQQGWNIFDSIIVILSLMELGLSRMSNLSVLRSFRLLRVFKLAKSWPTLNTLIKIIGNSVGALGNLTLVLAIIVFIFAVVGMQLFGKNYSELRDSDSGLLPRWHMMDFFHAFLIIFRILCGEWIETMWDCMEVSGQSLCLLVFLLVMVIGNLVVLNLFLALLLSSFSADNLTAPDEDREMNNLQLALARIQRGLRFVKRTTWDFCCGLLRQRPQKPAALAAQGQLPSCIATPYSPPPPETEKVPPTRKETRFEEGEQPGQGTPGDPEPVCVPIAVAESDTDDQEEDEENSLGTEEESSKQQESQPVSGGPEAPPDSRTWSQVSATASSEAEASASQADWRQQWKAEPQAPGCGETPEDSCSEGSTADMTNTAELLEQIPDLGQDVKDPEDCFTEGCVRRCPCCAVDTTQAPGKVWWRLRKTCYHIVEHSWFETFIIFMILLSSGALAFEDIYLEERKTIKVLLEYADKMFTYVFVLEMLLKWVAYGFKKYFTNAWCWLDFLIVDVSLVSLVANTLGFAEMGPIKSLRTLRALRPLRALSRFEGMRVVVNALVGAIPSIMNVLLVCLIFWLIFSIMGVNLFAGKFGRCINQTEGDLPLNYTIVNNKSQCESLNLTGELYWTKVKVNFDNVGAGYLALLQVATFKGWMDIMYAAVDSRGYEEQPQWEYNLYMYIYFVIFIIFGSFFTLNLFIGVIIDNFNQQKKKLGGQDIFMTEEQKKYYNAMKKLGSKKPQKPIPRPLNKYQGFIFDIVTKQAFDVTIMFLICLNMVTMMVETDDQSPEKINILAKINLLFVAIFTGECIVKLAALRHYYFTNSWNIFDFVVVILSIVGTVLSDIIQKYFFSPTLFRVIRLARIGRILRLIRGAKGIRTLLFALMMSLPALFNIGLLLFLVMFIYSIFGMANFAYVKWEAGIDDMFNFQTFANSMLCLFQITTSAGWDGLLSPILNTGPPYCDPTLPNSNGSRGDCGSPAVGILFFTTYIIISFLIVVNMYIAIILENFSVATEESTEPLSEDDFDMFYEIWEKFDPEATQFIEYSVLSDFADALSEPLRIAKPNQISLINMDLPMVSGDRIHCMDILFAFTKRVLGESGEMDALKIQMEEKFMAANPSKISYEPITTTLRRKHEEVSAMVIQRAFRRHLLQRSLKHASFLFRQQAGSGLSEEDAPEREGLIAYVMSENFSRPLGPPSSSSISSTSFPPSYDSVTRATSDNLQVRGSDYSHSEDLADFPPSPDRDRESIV
Sequence of Voltage-dependent L-type calcium channel subunit alpha-1C (Q13936 whole entry): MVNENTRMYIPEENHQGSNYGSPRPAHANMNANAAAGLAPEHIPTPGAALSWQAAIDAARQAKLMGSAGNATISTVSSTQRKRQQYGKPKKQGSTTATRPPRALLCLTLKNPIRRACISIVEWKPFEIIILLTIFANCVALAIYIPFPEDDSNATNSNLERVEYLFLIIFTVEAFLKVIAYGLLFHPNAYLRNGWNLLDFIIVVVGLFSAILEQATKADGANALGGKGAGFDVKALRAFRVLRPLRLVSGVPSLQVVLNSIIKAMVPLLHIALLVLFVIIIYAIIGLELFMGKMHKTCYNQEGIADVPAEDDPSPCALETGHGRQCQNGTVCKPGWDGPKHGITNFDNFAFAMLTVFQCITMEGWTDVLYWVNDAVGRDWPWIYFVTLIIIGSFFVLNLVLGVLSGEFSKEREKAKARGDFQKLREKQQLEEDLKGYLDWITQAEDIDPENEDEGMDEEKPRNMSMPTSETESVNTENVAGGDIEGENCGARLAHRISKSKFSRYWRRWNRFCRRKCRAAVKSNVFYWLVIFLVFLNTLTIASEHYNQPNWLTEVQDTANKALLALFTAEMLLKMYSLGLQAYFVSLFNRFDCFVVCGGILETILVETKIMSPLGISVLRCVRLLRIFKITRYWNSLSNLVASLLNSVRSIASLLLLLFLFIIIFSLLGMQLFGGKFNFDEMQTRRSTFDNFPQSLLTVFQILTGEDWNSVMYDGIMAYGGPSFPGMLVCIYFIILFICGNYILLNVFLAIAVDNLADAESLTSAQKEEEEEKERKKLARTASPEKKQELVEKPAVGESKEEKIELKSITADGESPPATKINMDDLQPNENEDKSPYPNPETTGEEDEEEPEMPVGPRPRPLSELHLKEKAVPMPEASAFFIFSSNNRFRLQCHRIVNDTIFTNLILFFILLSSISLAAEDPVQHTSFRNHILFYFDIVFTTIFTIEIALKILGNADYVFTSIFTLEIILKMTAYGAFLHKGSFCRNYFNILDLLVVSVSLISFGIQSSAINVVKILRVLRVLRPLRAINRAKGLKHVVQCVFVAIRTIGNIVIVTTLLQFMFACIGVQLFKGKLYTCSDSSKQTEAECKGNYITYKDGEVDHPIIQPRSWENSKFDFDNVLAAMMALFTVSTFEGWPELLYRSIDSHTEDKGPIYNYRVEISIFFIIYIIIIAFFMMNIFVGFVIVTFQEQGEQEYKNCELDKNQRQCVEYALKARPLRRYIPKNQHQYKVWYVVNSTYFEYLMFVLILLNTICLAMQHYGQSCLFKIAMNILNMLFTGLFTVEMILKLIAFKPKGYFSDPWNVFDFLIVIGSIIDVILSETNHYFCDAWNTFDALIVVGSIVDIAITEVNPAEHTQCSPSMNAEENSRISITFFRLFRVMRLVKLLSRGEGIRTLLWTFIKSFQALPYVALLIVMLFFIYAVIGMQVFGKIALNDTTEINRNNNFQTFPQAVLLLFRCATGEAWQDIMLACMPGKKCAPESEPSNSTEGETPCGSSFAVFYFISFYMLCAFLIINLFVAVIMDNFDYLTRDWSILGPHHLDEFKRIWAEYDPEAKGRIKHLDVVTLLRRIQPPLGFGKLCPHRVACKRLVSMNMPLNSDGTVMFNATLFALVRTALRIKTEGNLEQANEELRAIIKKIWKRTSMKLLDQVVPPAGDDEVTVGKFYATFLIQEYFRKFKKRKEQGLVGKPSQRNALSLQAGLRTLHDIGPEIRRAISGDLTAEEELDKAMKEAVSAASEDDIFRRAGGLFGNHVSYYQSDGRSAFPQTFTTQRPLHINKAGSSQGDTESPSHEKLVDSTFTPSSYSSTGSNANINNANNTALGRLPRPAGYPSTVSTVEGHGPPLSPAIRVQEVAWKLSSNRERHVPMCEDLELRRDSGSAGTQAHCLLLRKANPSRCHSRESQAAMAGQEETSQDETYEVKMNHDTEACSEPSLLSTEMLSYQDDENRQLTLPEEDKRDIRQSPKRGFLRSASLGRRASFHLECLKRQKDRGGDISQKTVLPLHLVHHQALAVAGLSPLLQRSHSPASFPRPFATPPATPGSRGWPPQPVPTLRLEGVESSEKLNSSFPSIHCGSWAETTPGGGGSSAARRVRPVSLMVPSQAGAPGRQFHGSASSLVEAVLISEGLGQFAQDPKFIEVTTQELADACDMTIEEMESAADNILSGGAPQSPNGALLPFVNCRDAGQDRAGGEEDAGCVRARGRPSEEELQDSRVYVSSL

clearance [3]: 6.67 mL/min/kg
Tmax [5]: 0.7 h
half-life [6]: 6.2 h
bioavailability [9]: 33%
EC50 [10]: 1.6 nM
EC50 [12]: 0.3 nM
IC50 [14]: 229 nM
bioavailability [16]: 24%
Papp A→B at 2 h, 5 µM [17]: 0.4 ×10⁻⁶ cm/s
Tmax [18]: 1.7 h
half-life [20]: 4.6 h
Tmax [21]: 4 h
clearance [22]: 8.33 mL/min/kg
half-life [23]: 2.8 h
IC50 [24]: 48 nM
half-life [25]: 1.7 h
half-life [26]: 2.2 h
SMILES: CCn1c(-c2cc(N3CCN(C)CC3)cnc2[C@H](C)OC)c2c3cc(ccc31)-c1csc(n1)C[C@H](NC(=O)[C@H]1C[C@@H]1C)C(=O)N1CCC[C@H](N1)C(=O)OCC(C)(C)C2
Activity [1]: Non-toxic
IC50 [2]: > 30000 nM
inhibition in vivo at 3 mg/kg [4]: 93%
Activity (SK-MEL-30): Active
inhibition (NCI-H441 [7]): Active
inhibition (PSN1): Active
inhibition (Mus musculus): Active
Activity (NCI-H441 [8]): Active
EC50 (NCI-H358): 1 nM
EC50 (CAPAN-1): 1.3 nM
IC50 [11]: > 30000 nM
Activity [13]: Non-toxic
IC50 [15]: 8900 nM
Activity (MIA PaCa-2): Active
Activity (HPAF-II): Dose-dependent-effect
inhibition in vivo at 10 mg/kg [19]: 95%
Activity (Hs 766): Active
Activity (NCI-H1373): Active
